Reference: BindingDB's records for doi:10.1021/jm051059p (Merck Frosst Centre For Therapeutic Research, 2006)

Biological target: T1, Cathepsin K (Oryctolagus cuniculus, UniProt P43236)
T1 sequence (P43236 whole entry): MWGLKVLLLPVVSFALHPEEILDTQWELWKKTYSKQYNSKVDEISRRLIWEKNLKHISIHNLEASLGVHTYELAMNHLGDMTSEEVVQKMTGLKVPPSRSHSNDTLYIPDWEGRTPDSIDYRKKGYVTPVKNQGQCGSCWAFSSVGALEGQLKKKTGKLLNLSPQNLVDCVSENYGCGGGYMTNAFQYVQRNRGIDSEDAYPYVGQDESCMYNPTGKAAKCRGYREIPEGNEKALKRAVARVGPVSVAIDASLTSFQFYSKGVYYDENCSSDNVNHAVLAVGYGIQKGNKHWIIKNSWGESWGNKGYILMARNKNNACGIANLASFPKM
Test: Enzyme Inhibition Assay
Method: Prior to the addition of substrate, different concentrations of the inhibitor ranging from 100 uM to 0.2 nM were preincubated for 15 min with enzyme to allow the establishment of the enzyme-inhibitor complex. The proteolytic cleavage of N-acyl aminocoumarins by cathepsins was conducted in 96-well plate format and the plate read using a Spectramax (Molecular Devices) plate reader. The excitation wavelength was 355 nm and the emission wavelength was 460 nm for peptidyl-AMC substrates. The percent inhibition of the reaction was calculated from a control reaction containing only vehicle. IC50 curves were generated by fitting percent inhibition values to a four parameter logistic model (SOFTMAX PRO, Molecular Devices).

Row | IC50 (pH 5.5, 22 °C) [nM] | IC50 [nM] | SMILES
1 | 0.5 | – | CSc1ccc(/C=C\[C@@H]2CCCC[C@H]2C(=O)NCC#N)cc1 (racemic) [racemic mixture]
2 | – | 19 | N#CCNC(=O)[C@@H]1CC(F)(F)CC[C@H]1c1ccccc1-c1ccc(F)cc1 (racemic) [racemic mixture]
3 | 100 | – | N#CCNC(=O)[C@@H]1CCCC[C@H]1CSc1ccc(N)cc1 (racemic) [racemic mixture]
4 | 1.7 | – | CSc1ccc(CC[C@@H]2CCCC[C@H]2C(=O)NCC#N)cc1 [racemic mixture]
5 | 100 | – | Cc1ccc(SC[C@@H]2CCCC[C@H]2C(=O)NCC#N)cc1 [racemic mixture]
